Source: patent publication US8247211B2, “Glycopeptide antibiotics” (American Cyanamid Company, priority 2001, dated 2012)
≈ marks a conversion by molar mass, not a printed value. Numbered stars: 1 amine (or outer) side, 2 acyl side, 3 side chain; on linkers, the order of the positions; unused ones are H or OH. Square brackets hold non-standard residues; d marks the D form. Peptide text beside a SMILES is read from it. * marks the point of attachment. ξ: configuration not given here. X1 = N=C1NCC(C(O)C(N[*:1])C(=O)[*:2])N1C1OC(CO)C(O)C(O)C1O; ξEnduracididine(βξ-OH,4'ξ) = N=C1NCC(C(O)C(N)C(=O)O)N1; ξPhe(4-Cl,βξ-Me) = CC(c1ccc(Cl)cc1)C(N)C(=O)O; X2 = OCC1OC(OC2C(CO)OC(*)C(O)C2O)C(O)C(O)C1O

What was measured:
Experiment in all cases: In vitro antibacterial evaluation: minimum inhibitory concentration (MIC), broth dilution method
Assay type in all cases: cell-based
Enterococcus sp. = test system: Enterococcus sp.
Experimental: (§1) The minimum inhibitory concentration (MIC), the lowest concentration of the antibiotic which inhibits growth of the test organism, is determined by the broth dilution method using Muller-Hinton II […] (Baltimore Biological Laboratories) following the recommendations of the National Committee for Clinical Laboratory Standards [Methods for dilution antimicrobial susceptibility tests for bacteria that grow aerobically, approved standard M7-A2, National Committee for Clinical Laboratory Standards, Villanova, Pa].
(§2) An inoculum level of 5×10^5 CFU/mL, and a range of antibiotic concentrations (64-0.06 μg/mL) is used. […] The test organisms include a spectrum of Gram-positive bacteria comprised of Staphylococcus sp., Streptococcus sp. and Enterococcus sp. These organisms include recent clinical isolates that are resistant to methicillin, penicillin and/or vancomycin.

Escherichia coli = test system: Escherichia coli
Experimental: as §1, §2

Streptococcus sp. = conditions: 18 hours at 35° C.
Experimental: as §1, §2

Staphylococcus sp. = conditions: for MIC Coagulase Negative Staphylococcus (GC 4537): strain GC 4537; for MIC Coagulase Negative Staphylococcus (GC 4538): strain GC 4538
Experimental: as §1, §2

[1] = broth dilution, 18 hours at 35° C.

Structure (SMILES): CC(c1ccccc1)C1NC(=O)CNC(=O)C(CO)NC(=O)C(CC2CNC(=N)N2C2OC(CO)C(O)C(O)C2O)NC(=O)C(CC2CNC(=N)N2)NC(=O)C(Cc2ccc(OC3OC(CO)C(OC4OC(CO)C(O)C(O)C4OCc4ccc(OCc5ccccc5)cc4)C(O)C3O)cc2)NC1=O (centres unmarked) [Example 246c]
- MIC Enterococcus avium (GC 4558) (Enterococcus sp.; Enterococcus avium (GC 4558), 18 hours at 35° C.): 64 µg/mL (≈ 43.8 µM)
- MIC Escherichia coli (GC 4560) (Escherichia coli; Escherichia coli (GC 4560), 18 hours at 35° C.): 32 µg/mL (≈ 21.9 µM)
- MIC Streptococcus pneumoniae (GC 1894) (Streptococcus sp.; Streptococcus pneumoniae (GC 1894)): 64 µg/mL (≈ 43.8 µM)
- MIC Streptococcus pneumoniae (GC 1894) (Streptococcus sp.; broth dilution, inoculum 5×10^5 CFU/mL): 64 µg/mL (≈ 43.8 µM)

Structure (SMILES): CC(c1ccc(Cl)cc1)C1NC(=O)CNC(=O)C(CO)NC(=O)C(C(O)C2CNC(=N)N2C2OC(CO)C(O)C(O)C2O)NC(=O)C(C(O)C2CNC(=N)N2)NC(=O)C(Cc2ccc(OC3OC(CO)C(OC4OC(CO)C(O)C(O)C4O)C(O)C3O)cc2)NC1=O (stereo not drawn) [Example 262a, Cyclo[glycyl-4-chloro-β-methylphenylalanyl-O-(4-O-hexopyranosylhexopyranosyl)tyrosyl-3-(2-iminoimidazolidin-4-yl)seryl-3-(3-hexopyranosyl-2-iminoimidazolidin-4-yl)serylseryl]] (cyclo(G[ξPhe(4-Cl,βξ-Me)]Y(X2)[ξEnduracididine(βξ-OH,4'ξ)][X1]S); configuration not given here)
- MIC Escherichia coli (GC 4560) (Escherichia coli; Escherichia coli (GC 4560)): 16 µg/mL (≈ 12 µM)
- MIC Coagulase Negative Staphylococcus (GC 4547) (Staphylococcus sp.; Coagulase Negative Staphylococcus (GC 4547), 18 hours at 35° C.): 64 µg/mL (≈ 48.1 µM)
- MIC Coagulase Negative Staphylococcus (GC 4547) (Staphylococcus sp.; Coagulase Negative Staphylococcus (GC 4547), broth dilution, 18 hours at 35° C.): 64 µg/mL (≈ 48.1 µM)
- MIC Coagulase Negative Staphylococcus (GC 4548) (Staphylococcus sp.; 18 hours at 35° C.): 64 µg/mL (≈ 48.1 µM)
- MIC Coagulase Negative Staphylococcus (GC 4548) (Staphylococcus sp.; [1]): 64 µg/mL (≈ 48.1 µM)
- MIC Coagulase Negative Staphylococcus (GC 4549) (Staphylococcus sp.; 18 hours at 35° C.): 16 µg/mL (≈ 12 µM)
- MIC Coagulase Negative Staphylococcus (GC 4549) (Staphylococcus sp.; [1]): 16 µg/mL (≈ 12 µM)
- MIC Staphylococcus aureus (ATCC 29213) (Staphylococcus sp.; Staphylococcus aureus (ATCC 29213), 18 hours at 35° C.): 64 µg/mL (≈ 48.1 µM)
- MIC Staphylococcus aureus (ATCC 29213) (Staphylococcus sp.; Staphylococcus aureus (ATCC 29213), broth dilution, 18 hours at 35° C.): 64 µg/mL (≈ 48.1 µM)
- MIC Staphylococcus aureus (GC 4541) (Staphylococcus sp.; 18 hours at 35° C.): 64 µg/mL (≈ 48.1 µM)
- MIC Staphylococcus aureus (GC 4541) (Staphylococcus sp.; [1]): 64 µg/mL (≈ 48.1 µM)
- MIC Staphylococcus aureus (GC 4544) (Staphylococcus sp.; 18 hours at 35° C.): 64 µg/mL (≈ 48.1 µM)
- MIC Staphylococcus aureus (GC 4544) (Staphylococcus sp.; [1]): 64 µg/mL (≈ 48.1 µM)
- MIC Staphylococcus aureus (GC 4545) (Staphylococcus sp.; 18 hours at 35° C.): 64 µg/mL (≈ 48.1 µM)
- MIC Staphylococcus aureus (GC 4545) (Staphylococcus sp.; [1]): 64 µg/mL (≈ 48.1 µM)
- MIC Staphylococcus aureus-SMITH (GC 4543) (Staphylococcus sp.; 18 hours at 35° C.): 64 µg/mL (≈ 48.1 µM)
- MIC Staphylococcus aureus-SMITH (GC 4543) (Staphylococcus sp.; [1]): 64 µg/mL (≈ 48.1 µM)
- MIC Staphylococcus haemolyticus (GC 4546) (Staphylococcus sp.; 18 hours at 35° C.): 64 µg/mL (≈ 48.1 µM)
- MIC Staphylococcus haemolyticus (GC 4546) (Staphylococcus sp.; [1]): 64 µg/mL (≈ 48.1 µM)
- MIC Streptococcus agalactiae (GC 4564) (Streptococcus sp.; Streptococcus agalactiae (GC 4564)): 32 µg/mL (≈ 24.1 µM)
- MIC Streptococcus pyogenes (ID-3187) (Streptococcus sp.; Streptococcus pyogenes (ID-3187)): 32 µg/mL (≈ 24.1 µM)

Structure (SMILES): CC(c1ccccc1)C1NC(=O)CNC(=O)C(CO)NC(=O)C(C(O)C2CNC(=N)N2C2OC(CO)C(O)C(O)C2O)NC(=O)C(C(O)C2CNC(=N)N2)NC(=O)C(Cc2ccc(OC3OC(CO)C(OC4OC(COC(=O)Cc5ccccc5)C(O)C(O)C4O)C(O)C3O)cc2)NC1=O (stereo not drawn) [Example 98c, Cyclo[glycyl-β-methylphenylalanyl-O-[4-O-[6-O-(phenylacetyl)hexopyranosyl]hexopyranosyl]-tyrosyl-3-(2-iminoimidazolidin-4-yl)seryl-3-(3-hexopyranosyl-2-iminoimidazolidin-4-yl)-serylseryl]]
- MIC Enterococcus faecalis (ATCC 29212) (Enterococcus sp.; strain ATCC 29212): 16 µg/mL (≈ 11.3 µM)
- MIC Enterococcus faecalis (GC 2242) (Enterococcus sp.; strain GC 2242): 8 µg/mL (≈ 5.66 µM)
- MIC Enterococcus faecalis (GC 4552) (Enterococcus sp.; strain GC 4552): 16 µg/mL (≈ 11.3 µM)
- MIC Escherichia coli (GC 4559) (Escherichia coli; strain GC 4559): 64 µg/mL (≈ 45.3 µM)
- MIC Escherichia coli (GC 4560) (Escherichia coli; strain GC 4560): 0.5 µg/mL (≈ 0.354 µM)
- MIC Staphylococcus aureus (ATCC 29213) (Staphylococcus sp.; [1]): 2 µg/mL (≈ 1.42 µM)
- MIC Staphylococcus aureus (GC 1131) (Staphylococcus sp.; [1]): 2 µg/mL (≈ 1.42 µM)
- MIC Staphylococcus aureus (GC 4535) (Staphylococcus sp.; [1]): 4 µg/mL (≈ 2.83 µM)
- MIC Staphylococcus aureus SMITH (GC 4536) (Staphylococcus sp.; [1]): 2 µg/mL (≈ 1.42 µM)
- MIC Coagulase Negative Staphylococcus (GC 4537) (Staphylococcus sp.): 2 µg/mL (≈ 1.42 µM)
- MIC Coagulase Negative Staphylococcus (GC 4537) (Staphylococcus sp.; [1]): 2 µg/mL (≈ 1.42 µM)
- MIC Coagulase Negative Staphylococcus (GC 4538) (Staphylococcus sp.): 1 µg/mL (≈ 0.708 µM)
- MIC Coagulase Negative Staphylococcus (GC 4538) (Staphylococcus sp.; [1]): 1 µg/mL (≈ 0.708 µM)
- MIC Coagulase Negative Staphylococcus (GC 4547) (Staphylococcus sp.; strain GC 4547): 1 µg/mL (≈ 0.708 µM)
- MIC Coagulase Negative Staphylococcus (GC 4547) (Staphylococcus sp.; strain GC 4547, broth dilution, 18 hours at 35° C.): 1 µg/mL (≈ 0.708 µM)
- MIC Staphylococcus aureus-SMITH (GC 4536) (Staphylococcus sp.; strain SMITH GC 4536, broth dilution, 18 hours at 35° C.): 2 µg/mL (≈ 1.42 µM)
